{"source": "paper PMC3580849", "about": "(Bioorganic & medicinal chemistry letters, 2011)", "origin": "cited, not measured here", "test_system": "Human M1 fibroblasts", "settings": "positive control, previously determined", "data": [{"substance": "H-KDLLEQKRAAVDTYC-NH2 [65–79*0401, H-Lys-Asp-Leu-Leu-Glu-Gln-Lys-Arg-Ala-Ala-Val-Asp-Thr-Tyr-Cys-NH2]", "values": [{"measurement": "optimal concentration for activation of NO production", "result": 50, "unit": "µM"}]}]}
